Columns and labels:
factor D [1] = target: T1, factor D (Homo sapiens, UniProt P00746); experiment: Human Complement Factor D ELISA Assay; format: biochemical; conditions: tested using the assay of Biological Example 1 (ELISA, Ba product quantified); read-out: activity against factor D
T1 construct: made in house; host or cells: E. coli

factor D [2] = target: T1, factor D; experiment: factor D inhibition assay of Biological Example 2; format: biochemical

T1 sequence (P00746 26-253): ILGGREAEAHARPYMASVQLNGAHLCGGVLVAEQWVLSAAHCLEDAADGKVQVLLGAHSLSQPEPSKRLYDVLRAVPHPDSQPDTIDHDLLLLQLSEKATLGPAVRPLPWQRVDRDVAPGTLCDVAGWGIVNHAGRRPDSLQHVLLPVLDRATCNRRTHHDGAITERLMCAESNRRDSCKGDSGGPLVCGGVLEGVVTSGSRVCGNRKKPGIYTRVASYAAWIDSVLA

Compound	IC50 (factor D [1]) [nM]	IC50 (factor D [2]) [nM]
CC[N+]1=C(/C=C/C=C/C=C2/N(CCCCCC(=O)NC[C@@]3(F)C[C@@H](C(=O)NCc4cccc(Cl)c4F)N(C(=O)Nc4cn(C(N)=O)c5ccccc45)C3)c3ccc(S(=O)(=O)O)cc3C2(C)C)C(C)(C)c2cc(S(=O)(=O)O)ccc21 [Biological Example 2.2, 2-((1E,3E,5E)-5-(1-(6-((((3S,5S)-1-((1-carbamoyl-1H-indol-3-yl)carbamoyl)-5-((3-chloro-2-fluorobenzyl)carbamoyl)-3-fluoropyrrolidin-3-yl)methyl)amino)-6-oxohexyl)-3,3-dimethyl-5-sulfoindolin-2-ylidene)penta-1,3-dien-1-yl)-1-ethyl-3,3-dimethyl-5-sulfo-3H-indol-1-ium]	694	–
NC(CCF)c1cccc(-c2cccc(COc3ccccc3CC(=O)O)c2)c1 (stereo not drawn) [Example 278-B, 2-(2-((3′-(1-amino-3-fluoropropyl)-[1,1′-biphenyl]-3-yl)methoxy)phenyl)acetic acid]	–	490
N[C@H](CCF)c1cccc(-c2cc(Cl)cc(COc3ccccc3CC(=O)O)c2)c1 [Example 279-B, (R)-2-(2-((3′-(1-amino-3-fluoropropyl)-5-chloro-[1,1′-biphenyl]-3-yl)methoxy)phenyl)acetic acid]	–	290
C[C@@H](N)c1cccc(-c2ccc(C3CC3)c(COc3ccccc3CC(=O)O)c2)c1F [Example 280, (R)-2-(2-((3′-(1-aminoethyl)-4-cyclopropyl-2′-fluoro-[1,1′-biphenyl]-3-yl)methoxy)phenyl)acetic acid]	–	6
C[C@@H](N)c1cccc(-c2cc(COc3ccccc3CC(=O)O)cc(NCC3CC3(F)F)c2)c1F (stereo partly drawn) [Example 281-E, 2-(2-((3′-((R)-1-Aminoethyl)-5-(((2,2-difluorocyclopropyl)methyl)amino)-2′-fluoro-[1,1′-biphenyl]-3-yl)methoxy)phenyl)acetic acid]	–	14
CCc1ccc(-c2cccc([C@@H](C)N)c2F)cc1COc1ccccc1CC(=O)O [Example 282-D, (R)-2-(2-((3′-(1-aminoethyl)-4-ethyl-2′-fluoro-[1,1′-biphenyl]-3-yl)methoxy)phenyl)acetic acid]	–	16
Cc1cc(-c2cccc([C@@H](C)N)c2F)cc(COc2ccccc2CC(=O)O)c1C [Example 283, (R)-2-(2-((3′-(1-aminoethyl)-2′-fluoro-4,5-dimethyl-[1,1′-biphenyl]-3-yl)methoxy)phenyl)acetic acid]	–	13
N[C@H](CF)c1cccc(-c2cc(CNCC(F)(F)F)cc(COc3ccccc3CC(=O)O)c2)c1 [Example 284-B, (S)-2-(2-((3′-(1-amino-2-fluoroethyl)-5-(((2,2,2-trifluoroethyl)amino)methyl)-[1,1′-biphenyl]-3-yl)methoxy)phenyl)acetic acid]	–	228
NC(CF)c1cccc(-c2cc(CNCC(F)(F)F)cc(COc3ccccc3CC(=O)O)c2)c1F (stereo not drawn) [Example 285-A]	–	35
C[C@@H](N)c1cccc(-c2cc(CNCC(F)(F)F)cc(COc3ccccc3CC(=O)O)c2)c1F [Example 285-B]	–	58
NCc1cccc(-c2cc(CNC(c3ccccc3)C(F)(F)F)cc(COc3ccccc3CC(=O)O)c2)c1 (stereo not drawn) [Example 286-E, 2-(2-((3′-(aminomethyl)-5-(((2,2,2-trifluoro-1-phenylethyl)amino)methyl)-[1,1′-biphenyl]-3-yl)methoxy)phenyl)acetic acid]	–	6
N[C@H](CO)c1cccc(-c2cc(COc3ccccc3CC(=O)O)cc(C(=O)N[C@H]3CCOc4ccccc43)c2)c1 [Example 287-G, 2-(2-((3′-((S)-1-amino-2-hydroxyethyl)-5-((S)-chroman-4-ylcarbamoyl)-[1,1′-biphenyl]-3-yl)methoxy)phenyl)acetic acid]	–	37
CC(C(=O)O)c1ccccc1OCc1cccc(-c2cccc(CN)c2)c1 (stereo not drawn) [Example 290, 2-(2-((3′-(aminomethyl)-[1,1′-biphenyl]-3-yl)methoxy)phenyl)propanoic acid]	–	1670
NCc1cccc(-c2cccc(COc3cc(C4CC4)ccc3CC(=O)O)c2)c1 [Example 294-A]	–	9
NCc1cccc(-c2cccc(COc3cc(C(N)=O)ccc3CC(=O)O)c2)c1 [Example 294-C]	–	10
CC(=O)NCc1ccc(CC(=O)O)c(OCc2cccc(-c3cccc(CN)c3)c2)c1 [Example 294-D]	–	10
CCNc1ccc(CC(=O)O)c(OCc2cccc(-c3cccc(CN)c3)c2)c1 [Example 294-E]	–	490
CC(=O)NC(C(=O)O)c1ccccc1OCc1cccc(-c2cccc(CN)c2)c1 (stereo not drawn) [Example 296, 2-acetamido-2-(2-((3′-(aminomethyl)-[1,1′-biphenyl]-3-yl)methoxy)phenyl)acetic acid]	–	2410

Now from value to molecule:

IC50 (factor D [1]) [nM]	IC50 (factor D [2]) [nM]	Compound
–	3430	CNCc1cccc(-c2cccc(COc3ccccc3CC(=O)O)c2)c1 [Example 288, 2-(2-((3′-((methylamino)methyl)-[1,1′-biphenyl]-3-yl)methoxy)phenyl)acetic acid]
–	850	N#Cc1ccc(COc2ccccc2CC(=O)O)cc1-c1cccc(CN)c1 [Example 289, 2-(2-((3′-(aminomethyl)-6-cyano-[1,1′-biphenyl]-3-yl)methoxy)phenyl)acetic acid]
–	190	NCc1cc(Cl)cc(-c2cccc(COc3ccccc3CC(=O)O)c2)c1 [Example 291, 2-(2-((3′-(aminomethyl)-5′-chloro-[1,1′-biphenyl]-3-yl)methoxy)phenyl)acetic acid]
–	70	Cc1cc(CN)cc(-c2cccc(COc3ccccc3CC(=O)O)c2)c1 [Example 292-B, 2-(2-((3′-(aminomethyl)-5′-methyl-[1,1′-biphenyl]-3-yl)methoxy)phenyl)acetic acid]
–	5	CCc1ccc(CC(=O)O)c(OCc2cccc(-c3cccc(CN)c3)c2)c1 [Example 293, 2-(2-((3′-(aminomethyl)-[1,1′-biphenyl]-3-yl)methoxy)-4-ethylphenyl)acetic acid]
–	40	N#Cc1ccc(CC(=O)O)c(OCc2cccc(-c3cccc(CN)c3)c2)c1 [Example 294-B]
–	70	N#Cc1ccc(OCc2cccc(-c3cccc(CN)c3)c2)c(CC(=O)O)c1 [Example 294-F]
–	4030	NCc1cccc(-c2cccc(COc3ccc(C(N)=O)cc3CC(=O)O)c2)c1 [Example 294-G]
–	9	NCc1cccc(-c2cccc(COc3cc(CC4CC4)ccc3CC(=O)O)c2)c1 [Example 295-C, 2-(2-((3′-(aminomethyl)-[1,1′-biphenyl]-3-yl)methoxy)-4-(cyclopropylmethyl)phenyl)acetic acid]

Reference: patent US20160145247A1, “Aminomethyl-Biaryl Derivatives Complement Factor D inhibitors and uses thereof” (NOVARTIS AG, priority 2013, published 2016)
